Measurements: patent US20040082635A1, “Fused cyclic compounds and medicinal use thereof” (priority 2001, published 2004)
Where a name gives a salt, the structure may show the parent alone. Read-outs that look alike come from different tables or passages of the source.

Target: T1, HCV polymerase (Hepatitis C virus genotype 1b, UniProt P26663)
T1 construct: a region encoding NS5B (591 amino acids; J Virol 1991 Mar, 65(3), 1105-13) was amplified by PCR; 6 His (N); made in house; host or cells: Escherichia coli
T1 sequence (P26663 2420-3010): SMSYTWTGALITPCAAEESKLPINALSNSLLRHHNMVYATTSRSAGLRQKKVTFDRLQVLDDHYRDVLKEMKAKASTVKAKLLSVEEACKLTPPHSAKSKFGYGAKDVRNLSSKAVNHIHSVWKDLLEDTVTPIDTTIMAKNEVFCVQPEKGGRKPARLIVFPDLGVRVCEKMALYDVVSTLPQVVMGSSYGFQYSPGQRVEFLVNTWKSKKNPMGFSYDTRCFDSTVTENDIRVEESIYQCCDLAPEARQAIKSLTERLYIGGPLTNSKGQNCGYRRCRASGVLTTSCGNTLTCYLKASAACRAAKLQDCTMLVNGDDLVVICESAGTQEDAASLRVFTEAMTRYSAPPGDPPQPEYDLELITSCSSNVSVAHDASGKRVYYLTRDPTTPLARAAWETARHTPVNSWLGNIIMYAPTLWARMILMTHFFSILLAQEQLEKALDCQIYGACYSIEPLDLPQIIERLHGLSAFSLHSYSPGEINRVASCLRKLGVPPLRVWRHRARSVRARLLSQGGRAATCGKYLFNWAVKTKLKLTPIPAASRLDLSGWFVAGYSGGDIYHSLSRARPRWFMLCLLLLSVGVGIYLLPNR
Test: biochemical

[1] = read-out: HCV polymerase inhibitory activity IC50

Structure (SMILES)	IC50 [1] [nM]	IC50 (HCV polymerase inhibitory activity IC50) [nM]
CN(C)C(=O)c1cc(COc2ccc(-c3nc4cc(C(=O)O)ccc4n3C3CCCCC3)c(F)c2)c(-c2ccc(F)cc2)s1 [Example 431, 2-{4-[{2-(4-fluorophenyl)-5-(dimethylcarbamoyl)thiophen-3-yl}methoxy]-2-fluorophenyl}-1-cyclohexylbenzimidazole-5-carboxylic acid hydrochloride]	15	–
O=C(O)c1ccc2c(c1)nc(-c1ccc(OCc3ccccc3)cc1)n2C1CCCCCC1 [Example 122, 2-(4-benzyloxyphenyl)-1-cycloheptylbenzimidazole-5-carboxylic acid]	510	–
COCCOCCOc1ccc(-c2ccc(Cl)cc2)c(COc2ccc(-c3nc4cc(C(=O)O)ccc4n3C3CCCCC3)cc2)c1 [Example 345, 2-{4-[2-(4-chlorophenyl)-5-{2-(2-methoxyethoxy)ethoxy}-benzyloxy]phenyl}-1-cyclohexylbenzimidazole-5-carboxylic acid hydrochloride]	12	–
O=C(O)c1ccc2c(c1)nc(-c1ccc(OCc3cc(C(=O)NCc4ccccn4)ccc3-c3ccc(Cl)cc3)cc1)n2C1CCCCC1 [Example 323, 2-{4-[2-(4-chlorophenyl)-5-{N-(2-pyridylmethyl)carbamoyl}-benzyloxy]phenyl}-1-cyclohexylbenzimidazole-5-carboxylic acid dihydrochloride]	18	–
C#CCOc1cccc(Oc2ccc(-c3nc4cc(C(=O)O)ccc4n3C3CCCCC3)cc2)c1 [Example 177, 1-cyclohexyl-2-{4-[3-(2-propynyloxy)phenoxy]phenyl}benzimidazole-5-carboxylic acid]	77	–
CCCN(C)C(=O)c1ccc(-c2ccc(Cl)cc2)c(COc2ccc(-c3nc4cc(C(=O)O)ccc4n3C3CCCCC3)c(F)c2)c1 [Example 385, 2-{4-[2-(4-chlorophenyl)-5-(N-methyl-N-propylcarbamoyl)-benzyloxy]-2-fluorophenyl}-1-cyclohexylbenzimidazole-5-carboxylic acid hydrochloride]	19	–
O=C(O)c1ccc2c(c1)nc(-c1ccc(COc3ccccc3-c3ccccc3)o1)n2C1CCCCC1 [Example 253, 2-[2-(2-biphenylyloxymethyl)-5-furyl]-1-cyclohexylbenzimidazole-5-carboxylic acid]	650	–
O=C(O)c1ccc2c(c1)nc(-c1ccc(OCc3cc(C(=O)N4CCC(O)CC4)ccc3-c3ccc(Cl)cc3)cc1F)n2C1CCCC1 [Example 411, 2-{4-[2-(4-chlorophenyl)-5-(4-hydroxypiperidin-1-ylcarbonyl)-benzyloxy]-2-fluorophenyl}-1-cyclopentylbenzimidazole-5-carboxylic acid hydrochloride]	15	–
O=C(O)c1ccc2c(c1)nc(-c1ccc(OCc3nc(N4CCCC4=O)ccc3-c3ccc(Cl)cc3)cc1F)n2C1CCCCC1 [Example 457, 2-[4-{[3-(4-chlorophenyl)-6-(2-oxopyrrolidin-1-yl)pyridin-2-yl]methyloxy}-2-fluorophenyl]-1-cyclohexylbenzimidazole-5-carboxylic acid hydrochloride]	15	–
O=C(O)COc1ccccc1Oc1ccc(-c2nc3cc(C(=O)O)ccc3n2C2CCCCC2)cc1 [Example 140, 2-[4-(2-carboxymethyloxyphenoxy)phenyl]-1-cyclohexylbenzimidazole-5-carboxylic acid]	110	–
CCC(=O)N(CC)c1ccc(-c2ccc(Cl)cc2)c(COc2ccc(-c3nc4cc(C(=O)O)ccc4n3C3CCCCC3)c(F)c2)c1 [Example 467, 2-[4-{2-(4-chlorophenyl)-5-[N-ethyl-N-(ethylcarbonyl)amino]-benzyloxy}-2-fluorophenyl]-1-cyclohexylbenzimidazole-5-carboxylic acid hydrochloride]	32	–
O=C(O)c1ccc2c(c1)nc(-c1ccc(OCc3cc(C(=O)NCC(O)CO)ccc3-c3ccc(Cl)cc3)cc1F)n2C1CCCCC1 (stereo not shown) [Example 383, 2-{4-[2-(4-chlorophenyl)-5-{(2,3-dihydroxypropyl)carbamoyl}-benzyloxy]-2-fluorophenyl}-1-cyclohexylbenzimidazole-5-carboxylic acid hydrochloride]	13	–
O=C(O)c1ccc2c(c1)nc(-c1ccc(OCc3cc(-c4nsc(=O)[nH]4)ccc3-c3ccc(Cl)cc3)cc1F)n2C1CCCCC1 [Example 376, 2-{4-[2-(4-chlorophenyl)-5-(2,5-dihydro-5-oxo-4H-1,2,4-thiadiazol-3-yl)benzyloxy]-2-fluorophenyl}-1-cyclohexylbenzimidazole-5-carboxylic acid hydrochloride]	14	–
CN(C)C(=O)c1ccc(-c2ccc(F)cc2)c(COc2ccc(-c3nc4cc(C(=O)O)ccc4n3C3CCCCC3)cc2)c1 [Example 360, 2-{4-[5-(dimethylcarbamoyl)-2-(4-fluorophenyl)benzyloxy]phenyl}-1-cyclohexylbenzimidazole-5-carboxylic acid hydrochloride]	14	–
Cc1nc(C)c(COc2cccc(Oc3ccc(-c4nc5cc(C(=O)O)ccc5n4C4CCCCC4)cc3)c2)s1 [Example 221, 1-cyclohexyl-2-{4-[3-{(2,4-dimethyl-5-thiazolyl)methoxy}phenoxy]-phenyl}benzimidazole-5-carboxylic acid]	58	–
O=C(O)c1ccc2c(c1)nc(-c1ccc(OCc3ccc(C(=O)NCc4ccncc4)cc3-c3ccc(Cl)cc3)cc1)n2C1CCCCC1 [Example 356, 2-{4-[2-(4-chlorophenyl)-4-{(4-pyridylmethyl)carbamoyl}-benzyloxy]phenyl}-1-cyclohexylbenzimidazole-5-carboxylic acid]	16	–

Structure (SMILES)	IC50 [1] [nM]	IC50 (HCV polymerase inhibitory activity IC50) [nM]
O=C(O)c1ccc2c(c1)nc(-c1ccc(Oc3cccc(-c4ccc(Cl)cc4)c3)cc1)n2C1CCCCC1 [Example 215, 2-{4-[3-(4-chlorophenyl)phenoxy]phenyl}-1-cyclohexylbenzimidazole-5-carboxylic acid]	78	–
CC(C)=CCOc1ccccc1Oc1ccc(-c2nc3cc(C(=O)O)ccc3n2C2CCCCC2)cc1 [Example 112, 1-cyclohexyl-2-{4-[2-(3-methyl-2-butenyloxy)phenoxy]phenyl}-benzimidazole-5-carboxylic acid]	110	–
CCN(CC)C(=O)c1ccc(-c2ccc(Cl)cc2)c(COc2ccc(-c3nc4cc(C(=O)O)ccc4n3C3CCCCC3)c(F)c2)c1 [Example 284, 2-{4-[2-(4-chlorophenyl)-5-diethylcarbamoylbenzyloxy]-2-fluorophenyl}-1-cyclohexylbenzimidazole-5-carboxylic acid]	14	–
O=C(O)c1ccc2c(c1)nc(-c1ccc(OCc3cc(O)ccc3-c3ccc(Cl)cc3)cc1)n2C1CCCCC1 [Example 329, 2-{4-[2-(4-chlorophenyl)-5-hydroxybenzyloxy]phenyl}-1-cyclohexylbenzimidazole-5-carboxylic acid hydrochloride]	47	–
O=C(O)c1ccc2c(c1)nc(-c1ccc(OCc3ccccc3)nc1)n2C1CCCCC1 [Example 100, 2-(2-benzyloxy-5-pyridyl)-1-cyclohexylbenzimidazole-5-carboxylic acid]	780	–
COc1ccc(-c2ccc(Cl)cc2)c(COc2ccc(-c3nc4cc(C(=O)O)cnc4n3C3CCCCC3)cc2)c1 [Example 701, 2-{4-[2-(4-chlorophenyl)-5-methoxybenzyloxy]phenyl}-3-cyclohexyl-3H-imidazo[4,5-b]pyridine-6-carboxylic acid]	52	–
O=C(O)c1ccc2c(c1)nc(-c1ccc(OCc3ccccc3Cl)cc1)n2C1CCCC1 [Example 54, 2-[4-(2-chlorobenzyloxy)phenyl]-1-cyclopentylbenzimidazole-5-carboxylic acid]	560	–
CCCN(C(C)=O)c1ccc(-c2ccc(Cl)cc2)c(COc2ccc(-c3nc4cc(C(=O)O)ccc4n3C3CCCCC3)c(F)c2)c1 [Example 460, 2-[4-{2-(4-chlorophenyl)-5-(N-acetyl-N-propylamino)benzyloxy}-2-fluorophenyl]-1-cyclohexylbenzimidazole-5-carboxylic acid hydrochloride]	17	–
O=C(O)c1ccc2c(c1)nc(-c1ccc(OCc3cc(C4=NOS(=O)N4)ccc3-c3ccc(Cl)cc3)cc1F)n2C1CCCCC1 (stereo not shown) [Example 375, 2-{4-[2-(4-chlorophenyl)-5-(2-oxo-3H-1,2,3,5-oxathiadiazol-4-yl)benzyloxy]-2-fluorophenyl}-1-cyclohexylbenzimidazole-5carboxylic acid hydrochloride]	12	–
CC(C)NC(=O)c1ccc(-c2ccc(F)c(F)c2)c(COc2ccc(-c3nc4cc(C(=O)O)ccc4n3C3CCCCC3)c(F)c2)c1 [Example 396, 2-{4-[2-(3,4-difluorophenyl)-5-(isopropylcarbamoyl)benzyloxy]-2-fluorophenyl}-1-cyclohexylbenzimidazole-5-carboxylic acid]	25	–
COCCOc1ccc(-c2ccc(Cl)cc2)c(COc2ccc(-c3nc4cc(C(=O)O)ccc4n3C3CCCCC3)cc2)c1 [Example 344, 2-{4-[2-(4-chlorophenyl)-5-(2-methoxyethoxy)benzyloxy]phenyl}-1-cyclohexylbenzimidazole-5-carboxylic acid hydrochloride]	16	–
CN(C)C(=O)c1ccc(-c2ccc(Cl)cc2)c(COc2ccc(-c3nc4cc(C(=O)O)ccc4n3C3CCCCC3)cc2)c1 [Example 232, 2-{4-[2-(4-chlorophenyl)-5-dimethylcarbamoylbenzyloxy]phenyl}-1-cyclohexylbenzimidazole-5-carboxylic acid]	–	15
O=C(O)c1ccc2c(c1)nc(-c1ccc(OCc3ccccc3)cc1)n2C1CCCC1 [Example 12, 2-(4-benzyloxyphenyl)-1-cyclopentylbenzimidazole-5-carboxylic acid]	600	–
O=C(O)c1ccc2c(c1)nc(-c1ccc(OCc3cc(C(=O)NC4CCCCC4)ccc3-c3ccc(Cl)cc3)cc1)n2C1CCCCC1 [Example 324, 2-{4-[2-(4-chlorophenyl)-5-(cyclohexylcarbamoyl)benzyloxy]-phenyl}-1-cyclohexylbenzimidazole-5-carboxylic acid hydrochloride]	27	–
COc1cc(OCc2ccccc2)ccc1-c1nc2cc(C(=O)O)ccc2n1C1CCCCC1 [Example 179, 2-(4-benzyloxy-2-methoxyphenyl)-1-cyclohexylbenzimidazole-5-carboxylic acid]	630	–
